Assay results reported in ChEMBL document CHEMBL3044584, “4-Sulfenyl-2-carbamoyl-4-isoxazolin-3-ones: biological isostere to 4-chloro-2-carbamoyl-4-isoxazolin-3-ones” (Chem Pharm Bull (Tokyo), 2000).

How the values were obtained:
[1] = tested on: Eleocharis kuroguwai; experiment: Pre-emergent herbicidal activity against Eleocharis kuroguwai assessed as growth inhibition at 25 g/a after 3 weeks in greenhouse conditions; type: functional; conditions: pre-emergence, 504 h, read-out: GI
[2] = Phytotoxicity against Oryza sativa (rice) assessed as growth inhibition at 25 g/a after 3 weeks in greenhouse conditions; type: organism-based; conditions: in vivo, read-out: GI
[3] = tested on: Eleocharis acicularis; experiment: Pre-emergent herbicidal activity against Eleocharis acicularis assessed as growth inhibition at 25 g/a after 3 weeks in greenhouse conditions; type: functional; conditions: pre-emergence, 504 h, read-out: GI
[4] = tested on: Lindernia procumbens; experiment: Pre-emergent herbicidal activity against Lindernia procumbens assessed as growth inhibition at 25 g/a after 3 weeks in greenhouse conditions; type: functional; conditions: pre-emergence, 504 h, read-out: GI
[5] = tested on: Cyperus serotinus; experiment: Pre-emergent herbicidal activity against Cyperus serotinus assessed as growth inhibition at 25 g/a after 3 weeks in greenhouse conditions; type: functional; conditions: pre-emergence, 504 h, read-out: GI
[6] = tested on: Lindernia procumbens; experiment: Pre-emergent herbicidal activity against Lindernia procumbens assessed as growth inhibition at 10 g/a after 3 weeks in greenhouse conditions; type: functional; conditions: pre-emergence, 504 h, read-out: GI
[7] = Phytotoxicity against Oryza sativa (rice) assessed as growth inhibition at 10 g/a after 3 weeks in greenhouse conditions; type: organism-based; conditions: in vivo, read-out: GI
[8] = tested on: Echinochloa oryzicola; experiment: Pre-emergent herbicidal activity against Echinochloa oryzicola assessed as growth inhibition at 10 g/a after 3 weeks in greenhouse conditions; type: functional; conditions: pre-emergence, 504 h, read-out: GI
[9] = tested on: Eleocharis kuroguwai; experiment: Pre-emergent herbicidal activity against Eleocharis kuroguwai assessed as growth inhibition at 10 g/a after 3 weeks in greenhouse conditions; type: functional; conditions: pre-emergence, 504 h, read-out: GI
[10] = tested on: Schoenoplectiella juncoides; experiment: Pre-emergent herbicidal activity against Schoenoplectiella juncoides assessed as growth inhibition at 25 g/a after 3 weeks in greenhouse conditions; type: functional; conditions: pre-emergence, 504 h, read-out: GI
[11] = tested on: Cyperus serotinus; experiment: Pre-emergent herbicidal activity against Cyperus serotinus assessed as growth inhibition at 10 g/a after 3 weeks in greenhouse conditions; type: functional; conditions: pre-emergence, 504 h, read-out: GI
[12] = tested on: Schoenoplectiella juncoides; experiment: Pre-emergent herbicidal activity against Schoenoplectiella juncoides assessed as growth inhibition at 10 g/a after 3 weeks in greenhouse conditions; type: functional; conditions: pre-emergence, 504 h, read-out: GI
[13] = tested on: Echinochloa oryzicola; experiment: Pre-emergent herbicidal activity against Echinochloa oryzicola assessed as growth inhibition at 25 g/a after 3 weeks in greenhouse conditions; type: functional; conditions: pre-emergence, 504 h, read-out: GI
[14] = tested on: Eleocharis acicularis; experiment: Pre-emergent herbicidal activity against Eleocharis acicularis assessed as growth inhibition at 10 g/a after 3 weeks in greenhouse conditions; type: functional; conditions: pre-emergence, 504 h, read-out: GI

| SMILES | inhibition of growth at 2500 g/ha [1] [%] | inhibition at 504 h [2] [%] | inhibition of growth at 2500 g/ha [3] [%] | inhibition of growth at 2500 g/ha [4] [%] | inhibition of growth at 2500 g/ha [5] [%] | inhibition of growth at 1000 g/ha [6] [%] | inhibition at 504 h [7] [%] | inhibition of growth at 1000 g/ha [8] [%] | inhibition of growth at 1000 g/ha [9] [%] | inhibition of growth at 2500 g/ha [10] [%] | inhibition of growth at 1000 g/ha [11] [%] | inhibition of growth at 1000 g/ha [12] [%] | inhibition of growth at 2500 g/ha [13] [%] | inhibition of growth at 1000 g/ha [14] [%] |
| --- | --- | --- | --- | --- | --- | --- | --- | --- | --- | --- | --- | --- | --- | --- |
| CCSc1c(C)on(C(=O)N(c2ccc(Cl)cc2)C(C)C)c1=O | > 91 | 11 | > 91 | > 91 | > 91 | > 91 | < 10 | > 91 | > 91 | > 91 | > 91 | > 91 | > 91 | > 91 |
| CCSc1c(C)on(C(=O)N(c2ccc(F)cc2)C(C)C)c1=O | > 91 | 51 | > 91 | > 91 | > 91 |  |  |  |  | > 91 |  |  | > 91 |  |
| CCSc1c(C)on(C(=O)N(c2ccc(C)cc2)C(C)C)c1=O |  |  |  |  |  | 31 | < 10 | > 91 | > 91 |  | > 91 | > 91 |  | 71 |
| CCSc1c(C)on(C(=O)N(c2ccc(Cl)cc2Cl)C(C)C)c1=O |  |  |  |  |  | 71 | < 10 | > 91 | > 91 |  | > 91 | > 91 |  | 71 |
| CCSc1c(C)on(C(=O)N(c2ccc(C#N)cc2)C(C)C)c1=O |  |  |  |  |  | 71 | 51 | > 91 | > 91 |  | > 91 | > 91 |  | 71 |
| CCSc1c(C)on(C(=O)N(c2cccc([N+](=O)[O-])c2)C(C)C)c1=O |  |  |  |  |  | 71 | 11 | > 91 | > 91 |  | > 91 | > 91 |  | 71 |
| CCSc1c(C)on(C(=O)N(c2cccc(C(F)(F)F)c2)C(C)C)c1=O |  |  |  |  |  | 51 | < 10 | > 91 | > 91 |  | > 91 | 71 |  | 31 |
| CCSc1c(CC)on(C(=O)N(c2ccc(Cl)cc2)C(C)C)c1=O | > 91 | 31 | 71 | 71 | > 91 | 51 | < 10 | > 91 | > 91 | 71 | 71 | 51 | > 91 | 51 |
| CCCSc1c(C)on(C(=O)N(c2ccc(Cl)cc2)C(C)C)c1=O | > 91 | 31 | > 91 | > 91 | > 91 | 51 | < 10 | > 91 | > 91 | > 91 | > 91 | > 91 | > 91 | > 91 |
| CCCSc1c(C)on(C(=O)N(c2ccc(F)cc2F)C(C)C)c1=O |  |  |  |  |  | > 91 | 11 | > 91 | > 91 |  | > 91 | > 91 |  | > 91 |
| Cc1on(C(=O)N(c2ccc(Cl)cc2)C(C)C)c(=O)c1SC(C)C | > 91 | 31 | 71 | > 91 | > 91 | 51 | < 10 | > 91 | > 91 | > 91 | > 91 | > 91 | > 91 | 51 |
| CCc1on(C(=O)N(c2ccc(Cl)cc2)C(C)C)c(=O)c1SC(C)C | > 91 | < 10 | 51 | 51 | > 91 |  |  |  |  | > 91 |  |  | > 91 |  |
| Cc1on(C(=O)N(c2ccc(Cl)cc2)C(C)C)c(=O)c1SC(F)F |  |  |  |  |  | 51 | 11 | > 91 | > 91 |  | > 91 | > 91 |  | > 91 |
| COCCSc1c(C)on(C(=O)N(c2ccc(Cl)cc2)C(C)C)c1=O | > 91 | 11 | 71 | 51 | > 91 | 31 | < 10 | > 91 | > 91 | > 91 | > 91 | > 91 | > 91 | 51 |
| C#CCSc1c(C)on(C(=O)N(c2ccc(Cl)cc2)C(C)C)c1=O | > 91 | 31 | 51 | 71 | > 91 | 51 | < 10 | > 91 | > 91 | > 91 | > 91 | > 91 | > 91 | 51 |
| CCSc1c(C)on(C(=O)N(CC)c2ccc(Cl)cc2)c1=O |  |  |  |  |  | 71 | 31 | > 91 | > 91 |  | > 91 | > 91 |  | 71 |
| CCCN(C(=O)n1oc(C)c(SCC)c1=O)c1ccc(Cl)cc1 |  |  |  |  |  | > 91 | 11 | > 91 | > 91 |  | > 91 | > 91 |  | 71 |
| CCSc1c(C)on(C(=O)N(C)c2ccc(Cl)cc2)c1=O | > 91 | 11 | 71 | 71 | > 91 |  |  |  |  | 71 |  |  | > 91 |  |
